Measurements: patent EP4703359A1 (Shanghai Simr Biotechnology Co., Ltd., priority 2023, dated 2024)

How the values were obtained:
α2-GABAA receptor [1] = target: T1, α2-GABAA receptor (Homo sapiens, UniProt P18507+P47869); experiment: Radioactive ligand (3H-flunitrazepam) competitive binding assay, BZD site of membrane proteins of α2-GABAAR-HEK293 cells; details: competition with 1 nM 3H-flunitrazepam; HEK293 membranes expressing α2, β3, γ2 subunits; Ki calculated from IC50; read-out: α2 Ki
T1 construct: expressed in transfected cells
Description: The α subunit, β subunit, and γ subunit are indispensable for forming a fully functional GABAA receptor. In this example, HEK293 cells stably expressing α2-GABAA receptors (α2-GABAAR) were constructed and screened respectively via liposome transfection (Felgner, P.L., et al. Proceedings of the National Academy of Sciences, 1987, 84: 7413-7417). The α2-GABAAR-HEK293 cell model co-expresses the α2 subunit (protein sequence referenced under GenBank accession number: NM_000807.4), β3 subunit (protein sequence referenced under GenBank accession number: NM_000814.5), and γ2 subunit (protein sequence referenced under GenBank accession number: NM_000816.3).
The above cell lines were subcultured. α2-GABAAR-HEK293 cells were amplified for testing the affinity of compounds to the benzodiazepine (BZD) site of GABAA receptors. Some of the α2-GABAAR-HEK293 cells in suspension during subculturing were plated on glass slides pre-treated with Poly-D-Lysine for electrophysiological testing (method reference: Patent CN 107344936 A, paragraph 0586).
The affinity of the compound for the α2-GABAA receptor was determined by competing with ^3H-flunitrazepam (isotope ^3H-labeled flunitrazepam) for binding to the BZD site of membrane proteins in HEK293 cells stably expressing human α2-GABAAR.
Membrane preparation: Cells were suspended in 50 mM Tris-HCl buffer (pH=7.4), homogenized on ice using a homogenizer for 20 seconds with 10 repetitions, and centrifuged at 4°C, 1000g for 10 minutes. The supernatant was collected, and the above steps were repeated. The supernatant was centrifuged at 4°C (33,800 × g; Thermo, rotor: A27-8x50) for 60 minutes, and the pellet was resuspended in Tris buffer (50 mM Tris-HCl, 10 mM MgCl2, 0.5 mM EDTA, 10% glycerol). The protein concentration was determined using the bicinchoninic acid (BCA) protein assay based on the copper ion reduction method (BCA kit purchased from Pierce (Annoron)). Aliquots of 1 mL were prepared and stored at -80°C.
Radioactive ligand competitive binding assay: This assay was conducted in a 200 µL system (96-well plate), containing 100 µL of cell membrane. The concentration of ^3H-flunitrazepam was 1 nM, and the concentration of the test compound ranged from […]. Flumazenil was used as a control. The low signal control well (Low Control, LC) was added with 1 µL of 2 mM flumazenil (final concentration 10 µM), while the high signal control well (High Control, HC) was added with 1 µL of dimethyl sulfoxide. The final concentration of the target membrane protein was 5 µg/well. All test compound stock solutions were prepared as 10 mM solutions in dimethyl sulfoxide. The working concentration of the samples was prepared by diluting all samples to 0.2 mM with dimethyl sulfoxide, followed by a 4-fold serial dilution to obtain a total of 8 concentration gradients. The 96-well plate was sealed with sealing film and then incubated on a shaker at room temperature for 1 hour. The GF/C filter plate was also soaked with a soaking buffer (0.3% PEI (polyethyleneimine, purchased from: Sigma-Aldrich, model: P314), stored at 4°C) for at least 0.5 hours. After the incubation was completed, the mixture was collected onto a GF/C filter plate using a cell harvester and washed four times with wash buffer (50 mM Tris-HCl, pH 7.4, stored at 4°C). After drying in a 50°C oven for 1 hour, the dried GF/C filter plate was sealed at the bottom with a film. The residual radioactivity on the filter membrane was detected using liquid scintillation counting. Each well was filled with 50 µL of scintillation fluid and sealed. Readings were taken using a Microbeta^2 (microplate counter, purchased from PerkinElmer, model: CNLL0153). The inhibitory activity of the test sample on the binding of ^3H-flunitrazepam to GABAA receptor membrane protein was calculated. […]

α2-GABAA receptor [2] = target: T1, α2-GABAA receptor; experiment: Whole-cell patch-clamp electrophysiology, positive allosteric modulatory activity in α2-GABAAR-HEK293 cells; type: cell-based; details: compound 100 nM; GABA 0.10 to 0.11 µM (approximately EC7-8); normalized to reference compound CVL-865 (= 100%); read-out: α2-GABAAR Positive allosteric modulatory activity
How it was run: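 HEK293 cells stably co-expressing α2β3γ2 GABAA receptor, whole-cell patch clamp at -60 mV. Compounds at 100 nM final applied with GABA 0.10–0.11 µM (~EC7-8) after GABA-only current stabilized. […]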

Row | SMILES | Ki (α2-GABAA receptor [1]) | Emax at 0.1 µM (α2-GABAA receptor [2])
1 | CCCNC(=O)c1nc2c(-c3cc(OC)ccc3OC)cccn2c1N [Example 69, 3-Amino-8-(2,5-dimethoxyphenyl)-N-propylimidazo[1,2-a]pyridine-2-carboxamide] | 30.8 nM | 70%
2 | [2H]c1ccc(OC)c(-c2cccn3c(N)c(C(=O)NCCC)nc23)c1F [Example 136, 3-Amino-8-(2-fluoro-6-methoxyphenyl-3-d)-N-propylimidazo[1,2-a]pyridine-2-carboxamide] | 17.6 nM | 91%
3 | COc1cccc(F)c1-c1cccn2c(N)c(C(=O)NC3CC3)nc12 [Example 5, 3-Amino-8-(2-fluoro-6-methoxyphenyl)-N-cyclopropylimidazo[1,2-a]pyridine-2-carboxamide] | 39 nM | 65%
4 | CCCNC(=O)c1nc2c(-c3cccc(OC)c3F)cccn2c1N [Example 63, 3-Amino-8-(2-fluoro-3-methoxyphenyl)-N-propylimidazo[1,2-a]pyridine-2-carboxamide] | 10.2 nM | 71%
5 | COc1cccc(F)c1-c1cccn2c(N)c(C(=O)NC3CC(C)C3)nc12 (stereo not drawn) [Example 8, 3-Amino-8-(2-fluoro-6-methoxyphenyl)-N-(3-methylcyclobutyl)imidazo[1,2-a]pyridine-2-carboxamide] | 11.9 nM | 66%
6 | CCCNC(=O)c1nc2c(-c3cc(F)cnc3OC)cccn2c1N [Example 84, 3-Amino-8-(5-fluoro-2-methoxypyridin-3-yl)-N-propylimidazo[1,2-a]pyridine-2-carboxamide] | 42 nM | 133%
7 | CCCNC(=O)c1nc2c(-c3cccc(CCC#N)c3)cccn2c1N [Example 37, 3-Amino-8-(3-(2-cyanoethyl)phenyl)-N-propylimidazo[1,2-a]pyridine-2-carboxamide] | 33.6 nM | 105%
8 | CCCNC(=O)c1nc2c(-c3ccccc3OC)cccn2c1N [Example 61, 3-Amino-8-(2-methoxyphenyl)-N-propylimidazo[1,2-a]pyridine-2-carboxamide] | 39.4 nM | 91%
9 | CCCNC(=O)c1nc2c(-c3c(F)ccc4c3oc(=O)n4C)cccn2c1N [Example 105, 3-Amino-8-(6-fluoro-3-methyl-2-oxo-2,3-dihydrobenzo[d]oxazol-7-yl)-N-propylimidazo [1,2-a] pyridine-2-carboxamide] | 39.6 nM | 160%
10 | CCCNC(=O)c1nc2c(-c3cc(C(F)F)ccc3OC)cccn2c1N [Example 67, 3-Amino-8-(5-(difluoromethyl)-2-methoxyphenyl)-N-propylimidazo[1,2-a]pyridine-2-carboxamide] | 15 nM | 138%
11 | CCCNC(=O)c1nc2c(-c3ccc(F)c(C#N)c3)cccn2c1N [Example 56, 3-Amino-8-(3-cyano-4-fluorophenyl)-N-propylimidazo[1,2-a]pyridine-2-carboxamide] | 38.2 nM | 95%
12 | CCCNC(=O)c1nc2c(-c3c(F)ccc(C)c3OC)cccn2c1N [Example 78, 3-Amino-8-(6-fluoro-2-methoxy-3-methylphenyl)-N-propylimidazo[1,2-a]pyridine-2-carboxamide] | 31.7 nM | 74%
13 | CCCNC(=O)c1nc2c(-c3cc(C)ccc3OC)cccn2c1N [Example 49, 3-Amino-8-(2-methoxy-5-methylphenyl)-N-propylimidazo[1,2-a]pyridine-2-carboxamide] | 19.2 nM | 156%
14 | CCCNC(=O)c1nc2c(-c3cc4c(cc3OC)N(C)C(=O)CO4)cccn2c1N [Example 91, 3-Amino-8-(6-methoxy-4-methyl-3-oxo-3,4-dihydro-2H-benzo[b][1,4]oxazin-7-yl)-N-propylimidazo[1,2-a]pyridine-2-carboxamide] | 27 nM | 93%
15 | CCCNC(=O)c1nc2c(-c3c(OC)ccc(F)c3F)cccn2c1N [Example 76, 3-Amino-8-(2,3-difluoro-6-methoxyphenyl)-N-propylimidazo[1,2-a]pyridine-2-carboxamide] | 12.9 nM | 101%
16 | CCCNC(=O)c1nc2c(-c3ccc(F)cc3OC)cccn2c1N [Example 53, 3-Amino-8-(4-fluoro-2-methoxyphenyl)-N-propylimidazo[1,2-a]pyridine-2-carboxamide] | 57 nM | 92%
17 | CCCNC(=O)c1nc2c(-c3c(OC)ccc(C)c3F)cccn2c1N [Example 77, 3-Amino-8-(2-fluoro-6-methoxy-3-methylphenyl)-N-propylimidazo[1,2-a]pyridine-2-carboxamide] | 5.17 nM | 126%
18 | COc1cccc(F)c1-c1cccn2c(N)c(C(=O)NC3CCC3)nc12 [Example 7, 3-Amino-8-(2-fluoro-6-methoxyphenyl)-N-cyclobutylimidazo[1,2-a]pyridine-2-carboxamide] | 14.9 nM | 52%
19 | COc1cccc(F)c1-c1cccn2c(N)c(C(=O)NCC3CC3)nc12 [Example 6, 3-Amino-N-(cyclopropylmethyl)-8-(2-fluoro-6-methoxyphenyl)imidazo[1,2-a]pyridine-2-carboxamide] | 24 nM | 57%
20 | [2H]C([2H])([2H])Oc1cccc(F)c1-c1cccn2c(N)c(C(=O)NCCC)nc12 [Example 138, 3-Amino-8-(2-fluoro-6-(methoxy-d3)phenyl)-N-propylimidazo[1,2-a]pyridine-2-carboxamide] | 11.1 nM | 77%
21 | [2H]c1ccc(F)c(-c2cccn3c(N)c(C(=O)NCCC)nc23)c1OC [Example 137, 3-Amino-8-(2-fluoro-6-methoxyphenyl-5-d)-N-propylimidazo[1,2-a]pyridine-2-carboxamide] | 13.5 nM | 97%
